According to US20110118220A1, “Composition of bifonazole and its use” (priority 2009, published 2011):

Key:
[1] = tested on: filamentous fungi represented by Trichophyton rubrum; test: In vitro antifungal activity (MIC), filamentous fungi; assay type: cell-based
Excerpt: (§1) To understand the in vivo and in vitro antibacterial effects, and to determine the in vivo and in vitro antibacterial activity through measuring the compound Bifonazole cream (Bifonazole/Triamcinolone acetonide acetate) on common pathogenic fungi of the minimum inhibitory concentration (MIC).

[2] = tested on: candida such as candida Albicans; test: In vitro antifungal activity (MIC), candida; assay type: cell-based
Excerpt: as §1

543 common fungi = test: In vitro pharmacodynamics of nine antifungal agents against 543 common fungi; assay type: cell-based
Excerpt: as §1

[3] = Long-term toxicity study by skin exposure; assay type: in vivo, rats; details: rat
Excerpt: Observe the abnormal reaction and degree of reversibility of the reaction caused by skin penetration through long-term exposure the animal's skin to subject drug.

[4] = Allergy study (repeated skin contact); assay type: in vivo
Excerpt: Observe the immune system response on skin after repeating skin contact animal skin with testing object.

Structure (SMILES): c1ccc(-c2ccc(C(c3ccccc3)n3ccnc3)cc2)cc1 (stereo not shown) [Bifonazole]
- antibacterial activity on filamentous fungi [1]: strong antibacterial activity
- antibacterial activity on candida [2]: a certain antibacterial activity
- antimicrobial activity against common fungal skin infections compared with econazole, ketoconazole, clotrimazole and miconazole (543 common fungi): slightly stronger
- minimum toxic dosage on main target organ (liver) [3]: 2 g/kg

Structure (SMILES): O=[N+]([O-])c1ccc(Cl)c([N+](=O)[O-])c1 [2,4-dinitro-chlorobenzene]
- average response ([4]; 24 hours): 2.4
- average response ([4]; 48 hours): 2.7
- average response ([4]; 72 hours): 2.9
- average response ([4]; by instance): 2.4
- allergenic rate ([4]; in vivo): 100%
- erythema and edema ([4]; in vivo): 10 animals all have erythema and edema
